Data reported in patent US20220274954A1, “SUBSTITUTED N-PHENYL-N-AMINOUARCILS AND SALTS THEREOF AND USE THEREOF AS HERBICIDAL AGENTS” (Bayer Aktiengesellschaft, priority 2019, published 2022).

How the values were obtained:
Type in all cases: in vivo
Veronica persica = test: Post-emergence herbicidal action; settings: for pest or weed control at 5 g/ha / pest or weed control at 20 g/ha: Veronica persica, 504 h, read-out: Veronica persica (efficacy in %)
Description: (§1) Seeds of monocotyledonous and dicotyledonous weeds and crop plants were placed in sandy loam in plastic or wood-fiber pots, covered with soil and cultivated in a greenhouse under controlled growth conditions. 2 to 3 weeks after sowing, the test plants were treated at the one-leaf stage. The compounds of the invention, formulated in the form of wettable powders (WP) or as emulsion concentrates (EC), were then sprayed onto the green parts of the plants as aqueous suspension or emulsion with addition of 0.5% additive at a water application rate of […] (converted). After the test plants had been kept in the greenhouse under optimum growth conditions for about 3 weeks, the activity of the preparations was rated visually in comparison to untreated controls. For example, 100% activity=the plants have died, 0% activity=like control plants. Tables A1 to A14 below show the effects of selected compounds of the general formula (I) according to Tables I.1 to I.34 on various harmful plants and at an application rate corresponding to 20 g/ha and less, which were obtained by the experimental procedure mentioned above.

Digitaria sanguinalis = test: Post-emergence herbicidal action; settings: 504 h, read-out: Digitaria sanguinalis (efficacy in %); for pest or weed control at 20 g/ha: application rate 20 g/ha
Description: as §1

Polygonum convolvulus = test: Post-emergence herbicidal action; settings: Fallopia convolvulus, 504 h, read-out: Polygonum convolvulus (efficacy in %); for pest or weed control at 20 g/ha: application rate 20 g/ha
Description: as §1

Amaranthus retroflexus = test: Post-emergence herbicidal action; settings: for pest or weed control at 5 g/ha / pest or weed control at 20 g/ha: Amaranthus retroflexus, 504 h, read-out: Amaranthus retroflexus (efficacy in %)
Description: as §1

Abutilon theophrasti = test: Post-emergence herbicidal action; settings: for pest or weed control at 5 g/ha / pest or weed control at 20 g/ha: Abutilon theophrasti, 504 h, read-out: Abutilon theophrasti (efficacy in %)
Description: as §1

Matricaria inodora = test: Post-emergence herbicidal action; settings: for pest or weed control at 5 g/ha / pest or weed control at 20 g/ha: Tripleurospermum inodorum, 504 h, read-out: Matricaria inodora (efficacy in %); for pest or weed control at 5 g/ha: application rate 5 g/ha
Description: as §1

Viola tricolor = test: Post-emergence herbicidal action; settings: for pest or weed control at 5 g/ha / pest or weed control at 20 g/ha: Viola tricolor, 504 h, read-out: Viola tricolor (efficacy in %)
Description: as §1

Setaria viridis = test: Post-emergence herbicidal action; settings: 504 h, read-out: Setaria viridis (efficacy in %); for pest or weed control at 5 g/ha: application rate 5 g/ha; for pest or weed control at 20 g/ha: application rate 20 g/ha
Description: as §1

Echinochloa crus-galli = test: Post-emergence herbicidal action; settings: for pest or weed control at 5 g/ha / pest or weed control at 20 g/ha: Echinochloa crus-galli, 504 h, read-out: Echinochloa crus-galli (efficacy in %)
Description: as §1

Pharbitis purpurea = test: Post-emergence herbicidal action; settings: for pest or weed control at 5 g/ha / pest or weed control at 20 g/ha: Ipomoea purpurea, 504 h, read-out: Pharbitis purpurea (efficacy in %)
Description: as §1

Alopecurus myosuroides = test: Post-emergence herbicidal action
Description: as §1

Oryza sativa = test: Post-emergence crop plant compatibility
Description: as §1, with “plants.” for “plants. Tables A1 to A14 below show the effects of selected compounds of the general formula (I) according to Tables I.1 to I.34 on various harmful plants and at an application rate corresponding to 20 g/ha and less, which were obtained by the experimental procedure mentioned above.”
(§2) Here, the observed effects on selected crop plants are stated in comparison to the untreated controls (values in %).

Triticum aestivum = test: Post-emergence crop plant compatibility
Description: as §1, with “plants.” for “plants. Tables A1 to A14 below show the effects of selected compounds of the general formula (I) according to Tables I.1 to I.34 on various harmful plants and at an application rate corresponding to 20 g/ha and less, which were obtained by the experimental procedure mentioned above.”
as §2

Zea mays = test: Post-emergence crop plant compatibility; settings: application rate 5 g/ha
Description: as §1, with “plants.” for “plants. Tables A1 to A14 below show the effects of selected compounds of the general formula (I) according to Tables I.1 to I.34 on various harmful plants and at an application rate corresponding to 20 g/ha and less, which were obtained by the experimental procedure mentioned above.”
as §2

Avena fatua = test: Post-emergence herbicidal action; settings: application rate 20 g/ha
Description: as §1

Oryza sativa (efficacy in %) (Oryza sativa; application rate 5 g/ha) [%] | Triticum aestivum (efficacy in %) (Triticum aestivum; application rate 1.25 g/ha) [%] | SMILES | pest or weed control at 5 g/ha (Veronica persica; application rate 5 g/ha) [%] | pest or weed control at 20 g/ha (Veronica persica; application rate 20 g/ha) [%] | pest or weed control at 20 g/ha (Digitaria sanguinalis) [%] | pest or weed control at 20 g/ha (Polygonum convolvulus) [%] | pest or weed control at 5 g/ha (Amaranthus retroflexus; application rate 5 g/ha) [%] | pest or weed control at 20 g/ha (Amaranthus retroflexus; application rate 20 g/ha) [%] | pest or weed control at 5 g/ha (Abutilon theophrasti; application rate 5 g/ha) [%] | pest or weed control at 20 g/ha (Abutilon theophrasti; application rate 20 g/ha) [%] | pest or weed control at 5 g/ha (Matricaria inodora) [%] | pest or weed control at 20 g/ha (Matricaria inodora; application rate 20 g/ha) [%] | pest or weed control at 5 g/ha (Viola tricolor; application rate 5 g/ha) [%] | pest or weed control at 20 g/ha (Viola tricolor; application rate 20 g/ha) [%] | pest or weed control at 5 g/ha (Setaria viridis) [%] | pest or weed control at 20 g/ha (Setaria viridis) [%] | pest or weed control at 5 g/ha (Echinochloa crus-galli; application rate 5 g/ha) [%] | pest or weed control at 20 g/ha (Echinochloa crus-galli; application rate 20 g/ha) [%] | pest or weed control at 20 g/ha (Pharbitis purpurea; application rate 20 g/ha) [%] | Alopecurus myosuroides (efficacy in %) (Alopecurus myosuroides; application rate 20 g/ha) [%] | also measured
10 | 10 | CCCCOC(=O)COc1ncccc1Sc1cc(-n2c(=O)cc(C(F)(F)F)n(N)c2=O)c(F)cc1Cl [I.1-447, n-Butyl {[3-({5-[3-amino-2,6-dioxo-4-(trifluoromethyl)-3,6-dihydropyrimidin-1(2H)-yl]-2-chloro-4-fluorophenyl}sulfanyl)pyridin-2-yl]oxy}acetate] | 100 | 100 | 100 | 100 | 100 | 100 | 100 | 100 | 100 | 100 | 100 | 100 | 100 | 100 | 100 | 100 | 100 | 90 | pest or weed control at 5 g/ha (Digitaria sanguinalis; application rate 5 g/ha): 100%; pest or weed control at 5 g/ha (Polygonum convolvulus; application rate 5 g/ha): 100%; pest or weed control at 5 g/ha (Pharbitis purpurea; application rate 5 g/ha): 100%; Alopecurus myosuroides (efficacy in %) (Alopecurus myosuroides; application rate 5 g/ha): 80%; Oryza sativa (efficacy in %) (Oryza sativa; application rate 1.25 g/ha): 0%
0 | 0 | CCCCCOC(=O)COc1ncccc1Sc1cc(-n2c(=O)cc(C(F)(F)F)n(N)c2=O)c(F)cc1Cl [I.1-448, n-Pentyl {[3-({5-[3-amino-2,6-dioxo-4-(trifluoromethyl)-3,6-dihydropyrimidin-1(2H)-yl]-2-chloro-4-fluorophenyl}sulfanyl)pyridin-2-yl]oxy}acetate] | 80 | 80 | 100 | 100 | 100 | 100 | 80 | 80 |  |  | 100 | 100 | 80 | 100 |  |  | 100 |  | Triticum aestivum (efficacy in %) (Triticum aestivum; application rate 5 g/ha): 10%; Zea mays (efficacy in %) (Zea mays): 20%
20 |  | COCCOCCOC(=O)COc1ncc(F)cc1Sc1cc(-n2c(=O)cc(C(F)(F)F)n(N)c2=O)c(F)cc1Cl [I.31-23, 2-(2-Methoxyethoxy)ethyl {[3-({5-[3-amino-2,6-dioxo-4-(trifluoromethyl)-3,6-dihydropyrimidin-1(2H)-yl]-2-chloro-4-fluorophenyl}sulfanyl)-5-fluoropyridin-2-yl]oxy}acetate] | 100 | 100 |  |  | 100 | 100 | 100 | 100 | 100 | 100 | 100 | 100 |  |  | 80 | 100 | 100 | 100 | pest or weed control at 5 g/ha (Pharbitis purpurea; application rate 5 g/ha): 100%; Avena fatua (efficacy in %) (Avena fatua): 80%
10 | 10 | CCOC(=O)COc1ncc(F)cc1Sc1cc(-n2c(=O)cc(C(F)(F)F)n(N)c2=O)c(F)cc1Cl [I.31-442] |  |  |  |  |  |  |  |  |  |  |  |  |  |  |  |  |  | 90 | Veronica persica (efficacy in %) (Veronica persica; application rate 5 g/ha): 100%; Veronica persica (efficacy in %) (Veronica persica; application rate 20 g/ha): 100%; Amaranthus retroflexus (efficacy in %) (Amaranthus retroflexus; application rate 5 g/ha): 100%; Amaranthus retroflexus (efficacy in %) (Amaranthus retroflexus; application rate 20 g/ha): 100%; Abutilon theophrasti (efficacy in %) (Abutilon theophrasti; application rate 5 g/ha): 100%; Abutilon theophrasti (efficacy in %) (Abutilon theophrasti; application rate 20 g/ha): 100%; Matricaria inodora (efficacy in %) (Matricaria inodora; application rate 20 g/ha): 100%; Viola tricolor (efficacy in %) (Viola tricolor; application rate 5 g/ha): 100%; Viola tricolor (efficacy in %) (Viola tricolor; application rate 20 g/ha): 100%; Echinochloa crus-galli (efficacy in %) (Echinochloa crus-galli; application rate 5 g/ha): 90%; Echinochloa crus-galli (efficacy in %) (Echinochloa crus-galli; application rate 20 g/ha): 90%; Pharbitis purpurea (efficacy in %) (Pharbitis purpurea; application rate 5 g/ha): 80%; Pharbitis purpurea (efficacy in %) (Pharbitis purpurea; application rate 20 g/ha): 100%; Alopecurus myosuroides (efficacy in %) (Alopecurus myosuroides; application rate 5 g/ha): 80%; Oryza sativa (efficacy in %) (Oryza sativa; application rate 1.25 g/ha): 0%; Triticum aestivum (efficacy in %) (Triticum aestivum; application rate 5 g/ha): 20%
